Source: PubChem BioAssay (NCI)
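Following 48 hours of exposure in 96-well plates, responses at five concentrations were used to interpolate endpoints linearly. The concentration for 50% growth inhibition is given as GI50. TGI denotes the concentration required for complete inhibition of growth.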

Columns and labels:
Experiment in all cases: NCI-60 cell line screen, 48 h
NCI/ADR-RES ovarian = test system: NCI/ADR-RES ovarian
HS 578T breast = test system: HS 578T breast
SW-620 colon = test system: SW-620 colon
RXF 393 renal = test system: RXF 393 renal
UACC-257 melanoma = test system: UACC-257 melanoma
OVCAR-4 ovarian = test system: OVCAR-4 ovarian
K-562 leukemia = test system: K-562 leukemia
SNB-19 CNS = test system: SNB-19 CNS

Row | SMILES | GI50 (NCI/ADR-RES ovarian) | TGI (NCI/ADR-RES ovarian) | GI50 (HS 578T breast) | TGI (HS 578T breast) | GI50 (SW-620 colon) | TGI (SW-620 colon) | GI50 (RXF 393 renal) | TGI (RXF 393 renal) | GI50 (UACC-257 melanoma) | TGI (UACC-257 melanoma) | GI50 (OVCAR-4 ovarian) | TGI (OVCAR-4 ovarian) | GI50 (K-562 leukemia) | TGI (K-562 leukemia) | GI50 (SNB-19 CNS) | TGI (SNB-19 CNS)
1 | CC(=O)OC(C)(C)/C(C)=C/C(=O)O[C@H]1C(=O)O[C@@H]2C[C@H]3[C@H](C)C(=O)C(O[C@@H]4O[C@H](CO)[C@@H](O)[C@H](O)[C@H]4O)=C[C@]3(C)[C@H]3[C@@H](O)[C@H](O)[C@@]4(C(=O)O)OC[C@]32[C@@H]14 | > 100 µM | > 100 µM | > 100 µM | > 100 µM | > 100 µM | > 100 µM | 37.3 µM | > 100 µM | > 100 µM | > 100 µM | > 100 µM | > 100 µM | 39.5 µM | > 100 µM | > 100 µM | > 100 µM
2 | COc1cc(C2SCC(=O)N2c2ncc(C)s2)cc(OC)c1OC (centres undefined) | 29 µM | > 50 µM | 44.6 µM | > 50 µM | 21.4 µM | > 50 µM | 27.5 µM | > 50 µM | > 50 µM | > 50 µM | > 50 µM | > 50 µM | 23.5 µM | > 50 µM | 34.5 µM | > 50 µM
3 | Oc1ccc(-c2nc3ccccc3s2)cc1CN(Cc1ccccn1)Cc1ccccn1 | 0.359 µM | 4.22 µM | 4.66 µM | 39.4 µM | 1.06 µM | 14.7 µM | 1.64 µM | 9.96 µM | 3.1 µM | 13 µM | 0.787 µM | 12.8 µM | 0.674 µM | 35.5 µM | 1.51 µM | 20.8 µM
4 | C/C(=N\NS(=O)(=O)c1ccc(C)cc1)P(=O)(O)O |  | > 100 µM |  | > 100 µM |  | > 100 µM |  | > 100 µM |  | > 100 µM |  | > 100 µM |  | > 100 µM |  | > 100 µM
5 | [N-]=[N+]=NC(c1cn(C2CC(O)C(CO)O2)c(=O)[nH]c1=O)C(Cl)I (centres undefined) |  | > 100 µM |  | > 100 µM |  | > 100 µM |  | > 100 µM |  | > 100 µM |  | > 100 µM |  |  |  | > 100 µM
6 | COc1cc(-c2cc(O)c(-c3ccc4ccccc4n3)c(=O)[nH]2)cc(OC)c1OC |  | > 100 µM |  | > 100 µM |  | 66.1 µM |  | > 82.8 µM |  | > 100 µM |  | > 53.6 µM |  | > 32.1 µM |  | > 100 µM
7 | O=C(Cc1ccc(F)c(F)c1)Nc1cc(C2(C(F)(F)F)CC2)nn1Cc1ccccc1 | 3.98 µM | > 15 µM | 1.53 µM | 10.1 µM | 3.91 µM | > 15 µM | 2.65 µM | 12.2 µM | 3.61 µM | 12.4 µM | 3.34 µM | > 15 µM | 5.01 µM | > 15 µM | 4.54 µM | > 15 µM
8 | CO/N=C(\C)c1ccc(Nc2cc(-c3ccccc3)nc3ccc(OC)cc23)cc1 | 2.61 µM | 11.2 µM | 3.5 µM | 9.44 µM | 3.4 µM | 11.9 µM |  |  | 4.64 µM | > 100 µM | 7.81 µM | > 100 µM | 5.42 µM | > 100 µM | 5.97 µM | > 100 µM
9 | S=C(Nc1ccc(-c2nc3ccccc3[nH]2)cc1)Nc1ccc(-c2nc3ccccc3[nH]2)cc1 | 66.9 µM | > 100 µM | > 100 µM | > 100 µM | > 100 µM | > 100 µM | > 100 µM | > 100 µM | > 100 µM | > 100 µM | > 100 µM | > 100 µM | 83.4 µM | > 100 µM | > 100 µM | > 100 µM
10 | NCC1OC(n2cnc3c(N)ncnc32)CC1O (centres undefined) |  | > 100 µM |  | > 100 µM |  | > 100 µM |  | > 100 µM |  | > 100 µM |  | > 100 µM |  | > 100 µM |  | > 100 µM
11 | CCN(CC)c1ccc(C(O)C2=CC(=O)c3ccccc3C2=O)cc1 (centres undefined) | > 32.9 µM | > 100 µM | 1.32 µM | 5.53 µM | 0.802 µM | > 100 µM |  |  | 1.96 µM | 5.02 µM | 1.27 µM | 3.1 µM | 0.416 µM |  |  | 
12 | CC(C)(C)c1cc(-n2c(-c3ccc(Cl)cc3)nc3cc(C(=O)Nc4ccc(Cl)cc4)ccc32)n[nH]1 | 4.17 µM | > 100 µM | 7.91 µM | 93 µM |  |  | 8.57 µM | 63.6 µM | 7.92 µM | > 100 µM | 6.11 µM | > 100 µM |  |  | 4.1 µM | > 100 µM
13 | O=C(c1ccccc1)C1OC1c1ccc([N+](=O)[O-])cc1 (centres undefined) | 2.58 µM | 9.36 µM | 3.33 µM | 35.2 µM | 2.42 µM | 6.6 µM | 6.38 µM | 44.8 µM | 16.7 µM | > 100 µM | 4.57 µM | > 100 µM |  |  | 26.2 µM | > 100 µM
14 | Cn1c2c(c3ccc([N+](=O)[O-])cc3c1=O)C(=O)c1ccccc1-2 | > 100 µM | > 100 µM | > 100 µM | > 100 µM | > 100 µM | > 100 µM |  |  | > 100 µM | > 100 µM | > 100 µM | > 100 µM |  |  | > 100 µM | > 100 µM
15 | CC1=C(c2ccccc2)NC(=S)C(C)C(c2ccccc2)=N1 (centres undefined) |  | > 100 µM |  |  |  | > 100 µM |  | 61.6 µM |  | > 100 µM |  | > 100 µM |  | 28.6 µM |  | > 100 µM
16 | Oc1ccc(C(c2ccc(O)cc2)c2ccc(O)cc2)cc1 |  | 44.2 µM |  | 56.1 µM |  | 88.1 µM |  | 39.5 µM |  | 52.4 µM |  | 29.1 µM |  |  |  | 66.1 µM
17 | Cc1cc(Cc2cc(C)c(NC(=O)C(=O)C3CCC4=C(SC5C=CC=CC5N4)C3=O)c(C(C)C)c2)cc(C(C)C)c1NC(=O)C(=O)C1CCC2=C(SC3C=CC=CC3N2)C1=O (centres undefined) |  | > 100 µM |  |  |  | > 100 µM |  | > 100 µM |  | > 100 µM |  | > 100 µM |  | > 100 µM |  | 
18 | CN(C)CCNC(=O)c1cccc(N(C)C(=O)c2ccccc2)c1[N+](=O)[O-] |  | > 100 µM |  | > 100 µM |  | > 100 µM |  |  |  | > 10 µM |  |  |  | > 100 µM |  | > 100 µM
19 | N=c1ccn(O)cc1/C=C1/C(=O)Nc2ccccc21 | > 100 µM | > 100 µM | > 100 µM | > 100 µM | > 100 µM | > 100 µM |  |  | > 100 µM | > 100 µM | > 100 µM | > 100 µM | > 100 µM | > 100 µM | > 100 µM | > 100 µM
